The source of these data is patent publication US20230320967A1, “COMPOSITION, USE OF THE COMPOSITION, COSMETIC METHOD FOR MODULATING THE PRODUCTION OF SEBUM” (CHEMYUNION LTDA., priority 2020, published 2023).

Data set [1] has as its system SEBO662AR cell model. Briefly: Sebum production inhibition in SEBO662AR sebocyte model, androgen-free lipogenic medium, Bodipy lipid droplet imaging. As to conditions: 500 micromolar, comparable to cerulenin 10 micromolar. The format is cell-based, human. The method, then: Sebocytes are cells found in the sebaceous glands and that, in the differentiation process, accumulate lipid droplets in their interior. The SEBO662AR cell model is an immortalized lineage of human sebocytes that responds to lipogenic stimuli and that can be used to select potential sebum production inhibitors.
A sebum production inhibition study was conducted in the SEBO662AR cell model cultivated in androgen-free lipogenic medium, and the formation of droplets was monitored by using Bodipy® fluorescent probes and image analysis. As an inhibition reference, cerulenin was applied at a concentration of 10 micromolar—a fatty acid synthase inhibitor which, although effective in reducing sebum production, is a very labile molecule as it has unsaturations and an epoxy group in its structure, so that its use is restricted to laboratory testing.

Data set [2] deals with SEBO662AR cell model. Briefly: Cytotoxicity in vitro (non-cytotoxic concentration). The format is cell-based, human. As to conditions: SEBO662AR study.
The test system of data set [3] is skin oiliness (sebum) of female volunteers with mixed or oily skin. Briefly: Clinical testing: face oiliness by sebum-metric index, Sebumeter SM 815. The format is in vivo, human. As to conditions: 0.01% w/w in cosmetic base (BC-tripeptide), twice a day, 20 female volunteers. The protocol:
For the clinical efficacy evaluation, the tripeptide (Glu-Val-Phe) was applied in a cosmetic base (BC) at a concentration of 0.01% (w/w) and compared to a placebo base, without active (Table 2).
The study was conducted with 20 female volunteers, between 18 and 50 years old, with mixed or oily skin, oily skin with a sebum-metric index above 100, who used the product (BC-placebo or BC-tripeptide) twice a day (morning and evening) for 28 days.
The participants were referred to the Instrumental Sector for acclimatizing for at least 20 minutes, in a room with controlled temperature and humidity (T=20±2° C. and RH=50±5%). After the acclimatizing period, sebum-metrics measurements were performed on the forehead. […]
The Sebumeter photometrically measures the increase in transparency of a special plastic strip that becomes translucent when coated with sebum. […] The strip is supported by a mirror which presses it against the skin of the region to be evaluated with a fixed pressure of 10N by means of a spring. […] The strip transparency is evaluated by a photocell present in the device where the plastic strip is inserted, and the light transmission represents the amount of sebum per area and the results are expressed in absolute values (μg sebum/cm^2). […]

Peptide text beside a SMILES is read from it.

As to `CC(C)[C@H](NC(=O)[C@@H](N)CCC(=O)O)C(=O)N[C@@H](Cc1ccccc1)C(=O)O` [SEQ ID No. 1, H-Glu-Val-Phe-OH] (H-Glu-Val-Phe-OH), in data set [1], the “reduction in sebum production” value stood at 28%. In data set [2], this molecule displayed a higher non-cytotoxic concentration of 500 µM. In addition, the “decrease of the average of the sebum-metric indices vs initial time (D0)” value in data set [3] (after 14 days) was determined as 31.54%. For the same molecule, the “reduction of average oiliness vs initial time (D0)” value in data set [3] (after 28 days) came out at 29.75%.
